# Biological target: PDGFRβ kinase, purified cytoplasmic domain PDGFR-β protein (Homo sapiens (Human), UniProt P09619)
# Assay: PDGFRβ Kinase Assay
# Assay type: biochemical
# Conditions: 36 μM ATP, poly-Glu-Tyr (4:1) substrate, 60 minute incubation at 30° C., ELISA read at 492 nm
# Procedure: Biochemical PDGFRβ kinase assays were performed in 96 well microliter plates that were coated overnight with 75 μg of poly-Glu-Tyr (4:1) in 10 mM Phosphate Buffered Saline (PBS), pH 7.4. The coated plates were washed with 2 mls per well PBS+0.05% Tween-20 (PBS-T), blocked by incubation with PBS containing 1% BSA, then washed with 2 mls per well PBS-T prior to starting the reaction. Reactions were carried out in 100 μL reaction volumes containing 36 μM ATP in kinase buffer (50 mM Hepes buffer pH 7.4, 20 mM MgCl2, 0.1 mM MnCl2 and 0.2 mM Na3VO4). Test compounds were reconstituted in 100% DMSO and added to the reaction to give a final DMSO concentration of 5%. Reactions were initiated by the addition 20 ul per well of kinase buffer containing 200-300 ng purified cytoplasmic domain PDGFR-β protein (Millipore). Following a 60 minute incubation at 30° C., the reactions were washed 2 mls per well PBS-T. 100 μl of a monoclonal anti-phosphotyrosine antibody-peroxidase conjugate diluted 1:10,000 in PBS-T was added to the wells for 30 minutes. Following a 2 mls per well wash with PBS-Tween-20, 100 μl of 0-Phenylenediamine Dihydrochloride in phosphate-citrate buffer, containing urea hydrogen peroxide, was added to the wells for 7-10 minutes as a colorimetric substrate for the peroxidase. The reaction was terminated by the addition of 100 μl of 2.5N H2SO4 to each well and read using a microplate ELISA reader set at 492 nm. IC50 values for compound inhibition were calculated directly from graphs of optical density (arbitrary units) versus compound concentration following subtraction of blank values. […]
# Chain of PDGFRβ kinase, purified cytoplasmic domain PDGFR-β protein (P09619 554-1106): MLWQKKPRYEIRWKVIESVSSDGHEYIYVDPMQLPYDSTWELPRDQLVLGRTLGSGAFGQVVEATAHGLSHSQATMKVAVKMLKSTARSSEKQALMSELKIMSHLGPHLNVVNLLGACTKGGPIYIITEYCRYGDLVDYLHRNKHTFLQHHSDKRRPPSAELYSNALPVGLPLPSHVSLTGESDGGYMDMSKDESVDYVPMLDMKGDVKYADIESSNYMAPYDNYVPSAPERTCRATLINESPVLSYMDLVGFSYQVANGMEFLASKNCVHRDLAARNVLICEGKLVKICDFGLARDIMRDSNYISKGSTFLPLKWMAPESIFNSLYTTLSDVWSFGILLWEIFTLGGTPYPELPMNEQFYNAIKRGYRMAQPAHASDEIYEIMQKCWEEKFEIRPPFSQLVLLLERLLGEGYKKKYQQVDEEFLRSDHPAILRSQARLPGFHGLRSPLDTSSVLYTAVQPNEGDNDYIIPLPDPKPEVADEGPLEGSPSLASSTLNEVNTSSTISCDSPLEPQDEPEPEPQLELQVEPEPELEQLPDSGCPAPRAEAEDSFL
row,Compound,IC50 [nM]
1,"O=C(Nc1ccc(N2CCc3ccncc3C2)cc1)c1cccc(C(F)(F)F)c1 [Example 162, N-[4-(3,4-dihydro-2,7-naphthyridin-2(1H)-yl)phenyl]-3-(trifluoromethyl)benzamide]",> 10000
2,"CCN(CC)C(=O)c1cccc(N2CCc3nc(N)ncc3C2)c1 [Example 21, 3-(2-amino-7,8-dihydropyrido[4,3-d]pyrimidin-6(5H)-yl)-N,N-diethylbenzamide]",> 1000
3,"CCCCNC(=O)c1cccc(N2CCc3nc(N)ncc3C2)c1 [Example 16, 3-(2-amino-7,8-dihydropyrido[4,3-d]pyrimidin-6(5H)-yl)-N-butylbenzamide]",> 10000
4,"Cc1ccc(NC(=O)Nc2ccc(N3CCc4ccncc4C3)cc2)cc1 [Example 165, 1-[4-(3,4-dihydro-2,7-naphthyridin-2(1H)-yl)phenyl]-3-(4-methylphenyl)urea]",> 1000
5,"Nc1ncc2c(n1)CCN(c1cccc(C(=O)Nc3cccc(C(F)(F)F)c3)c1)C2 [Example 5, 3-(2-amino-7,8-dihydropyrido[4,3-d]pyrimidin-6(5H)-yl)-N-(3-(trifluoromethyl)phenyl)benzamide]",26
6,"CC(C)c1ccc(NC(=O)c2cccc(N3CCc4nc(N)ncc4C3)c2)cc1 [Example 12, 3-(2-amino-7,8-dihydropyrido[4,3-d]pyrimidin-6(5H)-yl)-N-(4-isopropylphenyl)benzamide]",24
7,"CC(C)c1cccc(NC(=O)c2cccc(N3CCc4nc(N)ncc4C3)c2)c1 [Example 2, 3-(2-amino-7,8-dihydropyrido[4,3-d]pyrimidin-6(5H)-yl)-N-(3-isopropylphenyl)benzamide]",21
8,"CN1CCC(Oc2ccc(NC(=O)c3cccc(N4CCc5nc(N)ncc5C4)c3)cc2)CC1 [Example 11, 3-(2-amino-7,8-dihydropyrido[4,3-d]pyrimidin-6(5H)-yl)-N-(4-((1-methylpiperidin-4-yl)oxy)phenyl)benzamide]",> 1000
9,"Cc1cccc(NC(=O)c2cccc(N3CCc4nc(N)ncc4C3)n2)c1 [Example 37, 6-(2-amino-7,8-dihydropyrido[4,3-d]pyrimidin-6(5H)-yl)-N-(3-methylphenyl)pyridine-2-carboxamide]",> 10000
10,"CC(C)(C)CCNC(=O)c1cccc(N2CCc3nc(N)ncc3C2)c1 [Example 20, 3-(2-amino-7,8-dihydropyrido[4,3-d]pyrimidin-6(5H)-yl)-N-(3,3-dimethylbutyl)benzamide]",164
11,"CCc1cccc(NC(=O)c2cccc(N3CCc4nc(N)ncc4C3)c2)c1 [Example 9, 3-(2-amino-7,8-dihydropyrido[4,3-d]pyrimidin-6(5H)-yl)-N-(3-ethylphenyl)benzamide]",52
12,"O=C(Nc1ccccc1)Nc1ccc(N2CCc3ccncc3C2)cc1 [Example 164, 1-[4-(3,4-dihydro-2,7-naphthyridin-2(1H)-yl)phenyl]-3-phenylurea]",> 10000
13,"CCCc1ccc(NC(=O)c2cccc(N3CCc4nc(N)ncc4C3)c2)cc1 [Example 10, 3-(2-amino-7,8-dihydropyrido[4,3-d]pyrimidin-6(5H)-yl)-N-(4-propylphenyl)benzamide]",32
14,"COc1cccc(NC(=O)c2cccc(N3CCc4nc(N)ncc4C3)c2)c1 [Example 7, 3-(2-amino-7,8-dihydropyrido[4,3-d]pyrimidin-6(5H)-yl)-N-(3-methoxyphenyl)benzamide]",1240
15,"Nc1ncc2c(n1)CCN(c1cccc(C(=O)NC3CCCC3)c1)C2 [Example 19, 3-(2-amino-7,8-dihydropyrido[4,3-d]pyrimidin-6(5H)-yl)-N-cyclopentylbenzamide]",> 10000
16,"CCc1ccc(NC(=O)c2cccc(N3CCc4nc(N)ncc4C3)c2)cc1 [Example 8, 3-(2-amino-7,8-dihydropyrido[4,3-d]pyrimidin-6(5H)-yl)-N-(4-ethylphenyl)benzamide]",134

# Biological target: VEGFR2 (KDR) kinase, purified cytoplasmic domain KDR protein (Homo sapiens (Human), UniProt P35968)
# Sequence (P35968 786-1356): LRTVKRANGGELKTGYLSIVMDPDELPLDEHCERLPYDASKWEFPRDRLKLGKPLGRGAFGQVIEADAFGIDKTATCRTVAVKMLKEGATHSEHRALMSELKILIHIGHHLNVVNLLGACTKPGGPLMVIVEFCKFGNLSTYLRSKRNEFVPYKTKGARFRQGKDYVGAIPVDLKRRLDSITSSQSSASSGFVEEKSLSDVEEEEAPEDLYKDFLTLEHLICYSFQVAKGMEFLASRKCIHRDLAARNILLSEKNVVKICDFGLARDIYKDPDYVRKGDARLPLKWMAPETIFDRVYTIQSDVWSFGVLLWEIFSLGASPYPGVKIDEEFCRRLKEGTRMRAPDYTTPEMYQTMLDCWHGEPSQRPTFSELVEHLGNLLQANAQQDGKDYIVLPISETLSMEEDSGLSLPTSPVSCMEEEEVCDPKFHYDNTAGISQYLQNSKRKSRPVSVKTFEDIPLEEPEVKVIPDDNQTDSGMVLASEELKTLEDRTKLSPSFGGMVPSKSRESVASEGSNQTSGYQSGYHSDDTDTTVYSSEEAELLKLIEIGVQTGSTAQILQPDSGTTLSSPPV
# Assay: VEGFR2 Kinase Assay
# Assay type: biochemical
# Conditions: 2.7 μM ATP, poly-Glu-Tyr (4:1) substrate, 15 minute incubation at 30° C., ELISA read at 492 nm
# Procedure: Biochemical KDR kinase assays were performed in 96 well microliter plates that were coated overnight with 75 μg/well of poly-Glu-Tyr (4:1) in 10 mM Phosphate Buffered Saline (PBS), pH 7.4. The coated plates were washed with 2 mls per well PBS+0.05% Tween-20 (PBS-T), blocked by incubation with PBS containing 1% BSA, then washed with 2 mls per well PBS-T prior to starting the reaction. […] Reactions were initiated by the addition 20 ul per well of kinase buffer containing 200-300 ng purified cytoplasmic domain KDR protein (BPS Bioscience, San Diego, Calif.). Following a 15 minute incubation at 30° C., the reactions were washed 2 mls per well PBS-T. 100 μl of a monoclonal anti-phosphotyrosine antibody-peroxidase conjugate diluted 1:10,000 in PBS-T was added to the wells for 30 minutes. Following a 2 mls per well wash with PBS-Tween-20, 100 μl of O-Phenylenediamine Dihydrochloride in phosphate-citrate buffer, containing urea hydrogen peroxide, was added to the wells for 7-10 minutes as a colorimetric substrate for the peroxidase. […] IC50 values for compound inhibition were calculated directly from graphs of optical density (arbitrary units) versus compound concentration following subtraction of blank values.
row,Compound,IC50 [nM]
1,"CSc1ncc2c(n1)CCN(c1cc(C)cc(C(=O)Nc3cccc(C(F)(F)F)c3)c1)C2 [Example 140, 3-methyl-5-[2-(methylthio)-7,8-dihydropyrido[4,3-d]pyrimidin-6(5H)-yl]-N-[3-(trifluoromethyl)phenyl]benzamide]",> 1000
2,"Cc1ccc(NC(=O)Nc2ccc(N3CCc4ccncc4C3)cc2)cc1 [Example 165, 1-[4-(3,4-dihydro-2,7-naphthyridin-2(1H)-yl)phenyl]-3-(4-methylphenyl)urea]",> 1000
3,"4-(2-Methylsulfanyl-5,7-dihydro-pyrrolo[3,4-d]pyrimidin-6-yl)-pyridine-2-carboxylic acid (3-trifluoromethyl-phenyl)-amide [Example 126]",> 10000
4,"CSc1ncc2c(n1)CCN(c1cc(C)cc(C(=O)Nc3cccc(C(C)C)c3)c1)C2 [Example 142, N-(3-isopropylphenyl)-3-methyl-5-[2-(methylthio)-7,8-dihydropyrido[4,3-d]pyrimidin-6(5H)-yl]benzamide]",> 1000
